For four molecules, AC50 results are on record in ChEMBL document CHEMBL5291721, “A preclinical secondary pharmacology resource illuminates target-adverse drug reaction associations of marketed drugs” (Nat Commun, 2023).

Usually AC50 stands for the concentration giving half of the maximal activity seen. Read a high AC50 as weaker potency.

Molecules are shown by their SMILES.

For test [1], the target named is Sodium-dependent noradrenaline transporter (Homo sapiens, UniProt P23975).
Another test has as its target T1, Estrogen receptor (Homo sapiens, UniProt P03372).
T1 sequence (P03372 whole entry): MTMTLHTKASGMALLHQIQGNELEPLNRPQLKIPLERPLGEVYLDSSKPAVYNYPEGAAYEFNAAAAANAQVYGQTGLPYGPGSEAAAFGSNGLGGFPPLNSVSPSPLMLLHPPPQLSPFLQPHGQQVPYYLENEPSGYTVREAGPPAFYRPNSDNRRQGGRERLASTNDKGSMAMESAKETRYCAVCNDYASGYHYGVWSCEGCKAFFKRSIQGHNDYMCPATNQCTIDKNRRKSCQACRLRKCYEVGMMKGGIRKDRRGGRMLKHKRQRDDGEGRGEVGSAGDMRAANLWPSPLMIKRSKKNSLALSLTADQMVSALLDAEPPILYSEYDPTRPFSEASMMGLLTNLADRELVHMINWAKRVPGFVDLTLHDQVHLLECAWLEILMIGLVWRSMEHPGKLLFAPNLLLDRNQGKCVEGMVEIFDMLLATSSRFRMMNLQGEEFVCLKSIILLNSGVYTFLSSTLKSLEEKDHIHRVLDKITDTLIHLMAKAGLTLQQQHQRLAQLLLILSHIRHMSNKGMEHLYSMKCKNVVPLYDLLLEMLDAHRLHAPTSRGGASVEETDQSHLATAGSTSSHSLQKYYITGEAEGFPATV

The target of test [2] is Prostaglandin G/H synthase 1 (Homo sapiens, UniProt P23219). The class given is functional.
Chain of Prostaglandin G/H synthase 1 (P23219 whole entry): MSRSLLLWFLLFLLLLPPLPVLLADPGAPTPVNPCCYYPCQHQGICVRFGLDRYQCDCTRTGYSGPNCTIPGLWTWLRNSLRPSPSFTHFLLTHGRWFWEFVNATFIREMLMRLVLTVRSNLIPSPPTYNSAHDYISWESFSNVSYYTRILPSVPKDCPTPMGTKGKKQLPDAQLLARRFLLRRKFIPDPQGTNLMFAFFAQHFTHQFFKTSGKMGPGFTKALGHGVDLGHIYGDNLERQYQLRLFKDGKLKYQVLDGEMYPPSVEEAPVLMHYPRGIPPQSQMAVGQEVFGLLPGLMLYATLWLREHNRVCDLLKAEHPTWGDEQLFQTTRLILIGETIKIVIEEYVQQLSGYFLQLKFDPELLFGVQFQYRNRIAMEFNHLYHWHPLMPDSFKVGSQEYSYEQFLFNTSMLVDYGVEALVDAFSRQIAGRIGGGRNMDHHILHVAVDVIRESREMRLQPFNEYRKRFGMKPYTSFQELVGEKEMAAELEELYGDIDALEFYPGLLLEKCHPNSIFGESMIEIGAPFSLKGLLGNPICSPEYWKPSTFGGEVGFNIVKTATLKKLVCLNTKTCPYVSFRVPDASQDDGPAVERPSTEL
For test [3], the target named is 3',5'-cyclic-AMP phosphodiesterase 4A (Homo sapiens, UniProt P27815). The class given is functional.
Chain of 3',5'-cyclic-AMP phosphodiesterase 4A (P27815 whole entry): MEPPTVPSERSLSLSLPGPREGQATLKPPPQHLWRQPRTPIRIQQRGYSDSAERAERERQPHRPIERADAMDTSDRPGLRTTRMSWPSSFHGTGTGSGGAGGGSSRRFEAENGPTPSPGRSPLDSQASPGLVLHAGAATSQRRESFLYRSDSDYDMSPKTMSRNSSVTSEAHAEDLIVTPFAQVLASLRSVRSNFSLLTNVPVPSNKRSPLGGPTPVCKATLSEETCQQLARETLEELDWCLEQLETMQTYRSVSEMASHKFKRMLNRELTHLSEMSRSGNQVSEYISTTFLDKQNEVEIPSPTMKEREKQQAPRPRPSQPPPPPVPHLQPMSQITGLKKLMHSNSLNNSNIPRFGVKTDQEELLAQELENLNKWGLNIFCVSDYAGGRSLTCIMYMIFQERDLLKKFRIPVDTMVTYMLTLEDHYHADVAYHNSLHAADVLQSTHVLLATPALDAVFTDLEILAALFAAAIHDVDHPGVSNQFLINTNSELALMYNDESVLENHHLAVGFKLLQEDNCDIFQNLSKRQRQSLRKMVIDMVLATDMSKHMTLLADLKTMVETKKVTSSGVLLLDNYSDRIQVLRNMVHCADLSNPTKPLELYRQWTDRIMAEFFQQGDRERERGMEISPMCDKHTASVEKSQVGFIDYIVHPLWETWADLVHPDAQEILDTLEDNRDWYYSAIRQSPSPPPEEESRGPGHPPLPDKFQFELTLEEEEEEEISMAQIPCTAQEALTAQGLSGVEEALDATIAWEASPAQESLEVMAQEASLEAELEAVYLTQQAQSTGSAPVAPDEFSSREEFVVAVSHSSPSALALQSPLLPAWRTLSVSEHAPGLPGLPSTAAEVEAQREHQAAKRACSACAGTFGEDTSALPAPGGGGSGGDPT
The next test deals with T2, Progesterone receptor (Homo sapiens, UniProt P06401).
T2 sequence (P06401 whole entry): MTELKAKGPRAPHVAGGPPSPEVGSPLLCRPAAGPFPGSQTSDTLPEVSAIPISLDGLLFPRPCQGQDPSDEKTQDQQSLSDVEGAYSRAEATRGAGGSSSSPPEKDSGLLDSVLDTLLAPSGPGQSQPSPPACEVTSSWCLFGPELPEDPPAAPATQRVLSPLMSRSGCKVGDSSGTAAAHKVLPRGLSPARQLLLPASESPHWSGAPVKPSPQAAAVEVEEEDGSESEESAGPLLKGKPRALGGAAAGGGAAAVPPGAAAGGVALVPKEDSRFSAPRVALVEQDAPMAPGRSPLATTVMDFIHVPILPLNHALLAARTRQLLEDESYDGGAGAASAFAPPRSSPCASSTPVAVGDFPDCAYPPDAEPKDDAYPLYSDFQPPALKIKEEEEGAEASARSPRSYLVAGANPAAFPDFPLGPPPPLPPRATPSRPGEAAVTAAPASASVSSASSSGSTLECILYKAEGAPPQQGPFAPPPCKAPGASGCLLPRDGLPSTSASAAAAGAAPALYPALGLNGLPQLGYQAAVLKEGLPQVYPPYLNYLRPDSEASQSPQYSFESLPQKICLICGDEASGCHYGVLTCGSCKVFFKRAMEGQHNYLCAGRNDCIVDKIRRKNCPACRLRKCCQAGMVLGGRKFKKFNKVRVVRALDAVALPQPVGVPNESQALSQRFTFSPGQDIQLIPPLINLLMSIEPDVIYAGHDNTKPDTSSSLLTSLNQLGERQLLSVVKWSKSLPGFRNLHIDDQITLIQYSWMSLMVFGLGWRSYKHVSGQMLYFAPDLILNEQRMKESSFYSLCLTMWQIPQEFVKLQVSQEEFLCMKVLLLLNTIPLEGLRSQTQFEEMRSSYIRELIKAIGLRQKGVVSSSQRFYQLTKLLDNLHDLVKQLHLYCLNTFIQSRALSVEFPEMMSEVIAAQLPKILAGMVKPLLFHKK

Test [4] deals with T3, Alpha-1A adrenergic receptor (Homo sapiens, UniProt P35348).
T3 sequence (P35348 whole entry): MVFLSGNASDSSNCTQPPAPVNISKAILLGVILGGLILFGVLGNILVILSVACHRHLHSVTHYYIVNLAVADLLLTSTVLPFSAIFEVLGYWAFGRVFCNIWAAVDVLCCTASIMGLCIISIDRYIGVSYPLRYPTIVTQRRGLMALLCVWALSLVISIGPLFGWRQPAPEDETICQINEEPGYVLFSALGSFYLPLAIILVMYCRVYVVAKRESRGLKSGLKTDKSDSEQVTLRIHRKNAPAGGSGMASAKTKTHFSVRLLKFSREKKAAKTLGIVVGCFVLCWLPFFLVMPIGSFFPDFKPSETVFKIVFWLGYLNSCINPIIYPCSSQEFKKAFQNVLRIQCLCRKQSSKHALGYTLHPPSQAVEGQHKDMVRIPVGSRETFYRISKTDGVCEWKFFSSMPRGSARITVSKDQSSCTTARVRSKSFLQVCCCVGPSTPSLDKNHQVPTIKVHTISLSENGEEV
Format: functional, cell-based.

For test [5], the target named is T4, Amine oxidase [flavin-containing] A (Homo sapiens, UniProt P21397).
T4 sequence (P21397 whole entry): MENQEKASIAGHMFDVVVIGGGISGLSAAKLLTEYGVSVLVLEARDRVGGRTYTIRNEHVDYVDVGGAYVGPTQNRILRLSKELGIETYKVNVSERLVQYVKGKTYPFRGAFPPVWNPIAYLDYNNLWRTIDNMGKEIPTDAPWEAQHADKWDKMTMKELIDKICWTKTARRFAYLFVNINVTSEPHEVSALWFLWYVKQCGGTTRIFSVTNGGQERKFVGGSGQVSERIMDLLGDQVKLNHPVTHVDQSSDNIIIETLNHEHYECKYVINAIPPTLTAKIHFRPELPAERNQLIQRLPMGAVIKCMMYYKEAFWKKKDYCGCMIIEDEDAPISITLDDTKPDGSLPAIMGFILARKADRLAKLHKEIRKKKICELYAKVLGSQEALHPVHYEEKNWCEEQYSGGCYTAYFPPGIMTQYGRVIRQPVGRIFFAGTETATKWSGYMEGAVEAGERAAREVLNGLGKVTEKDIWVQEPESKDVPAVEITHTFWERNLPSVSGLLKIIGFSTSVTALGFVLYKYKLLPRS
Format: functional.
Further: assay procedure not described here.

Chain of Sodium-dependent noradrenaline transporter (P23975 whole entry): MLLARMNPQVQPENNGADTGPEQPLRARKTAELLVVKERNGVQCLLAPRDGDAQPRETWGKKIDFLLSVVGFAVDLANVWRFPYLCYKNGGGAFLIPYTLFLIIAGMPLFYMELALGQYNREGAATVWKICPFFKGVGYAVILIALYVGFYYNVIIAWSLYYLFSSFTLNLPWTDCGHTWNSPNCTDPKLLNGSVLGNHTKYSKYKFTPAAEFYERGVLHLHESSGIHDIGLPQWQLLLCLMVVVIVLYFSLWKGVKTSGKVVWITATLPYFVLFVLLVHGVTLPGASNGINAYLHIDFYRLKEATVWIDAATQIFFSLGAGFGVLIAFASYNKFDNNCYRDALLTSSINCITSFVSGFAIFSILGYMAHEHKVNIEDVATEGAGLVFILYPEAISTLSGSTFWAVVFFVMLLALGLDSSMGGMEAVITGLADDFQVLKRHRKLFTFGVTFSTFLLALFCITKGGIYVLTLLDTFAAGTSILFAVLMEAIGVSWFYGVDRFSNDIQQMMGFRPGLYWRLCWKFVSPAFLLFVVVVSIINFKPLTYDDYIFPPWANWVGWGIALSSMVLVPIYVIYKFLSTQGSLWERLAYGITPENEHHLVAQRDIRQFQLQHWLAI

As to `O=C(Oc1ccccc1C(=O)O)c1ccccc1O` [SALSALATE], the concentration at half-maximal activity (AC50) (in test [1]; on Estrogen receptor; in test [2]; in test [3]; on Progesterone receptor; in test [4]) was > 30 µM in each case. The AC50 in test [5] was > 30 µM.

Consider `COc1cc([C@@H]2c3cc4c(cc3[C@@H](O[C@@H]3O[C@@H]5CO[C@@H](c6cccs6)O[C@H]5[C@H](O)[C@H]3O)[C@H]3COC(=O)[C@H]23)OCO4)cc(OC)c1O` [TENIPOSIDE], for which the AC50 (in test [1]; on Estrogen receptor; in test [2]; in test [3]; at Progesterone receptor; in test [4]) was > 30 µM each time. Further, in test [5], the AC50 was > 30 µM.

On to `c1ccc2[nH]c(-c3cscn3)nc2c1` [THIABENDAZOLE], for which the half-maximal activity concentration (AC50) (in test [1]; on Estrogen receptor; in test [2]; in test [3]; at Progesterone receptor; in test [4]) was > 30 µM each time. Further, the half-maximal activity concentration (AC50) in test [5] is > 30 µM.

For the molecule `C[C@@H]1C[C@H]2[C@@H]3CCC4=CC(=O)C=C[C@]4(C)C3=CC[C@]2(C)[C@H]1C(=O)CN1CCN(c2cc(N3CCCC3)nc(N3CCCC3)n2)CC1` [TIRILAZAD], the AC50 in test [1] is > 30 µM; on Estrogen receptor, > 30 µM; in test [2], 3.05 µM; in test [3] it was 19.4 µM; at Progesterone receptor, 6.37 µM; in test [4], > 30 µM. Moreover, the AC50 in test [5] was > 30 µM.
